Earlier results as cited in article PMC2650103 (Journal of medicinal chemistry, 2008).

Tested on: cowpox, vaccinia or ectromelia virus
Conditions: mouse, in vivo, po; cited from earlier work

SMILES: O=C(NN1C(=O)C2C3C=CC(C4CC34)C2C1=O)c1ccc(C(F)(F)F)cc1 (stereo not shown) [Compound 30, 4-trifluoromethyl-N-(3,3a,4,4a,5,5a,6,6a-octahydro-1,3-dioxo-4,6-ethenocycloprop[f]isoindol-2(1H)-yl)-benzamide]
- Protection against viral spread in mice: effective in protecting against viral spread
